{"source": "patent US6686354B2", "about": "“Agonists and antagonists of peripheral-type benzodiazepine receptors” (Scios, Inc., priority 1998, dated 2004)", "key": {"[1]": {"tested_on": "guinea pig heart preparation", "details": "cited from earlier work"}, "[2]": {"tested_on": "neonatal rat cardiomyocytes", "assay": "Protein synthesis ([3H]phenylalanine incorporation) in neonatal rat cardiomyocytes", "format": "cell-based", "description": "Neonatal rat ventricular cardiomyocytes were isolated from one or two days old rat pups using the following reagents and isolation procedure:\nWhen cardiomyocytes undergo hypertrophy several biochemical parameters can be monitored. There is an increase in protein synthesis and atrial natriuretic peptide (ANP) synthesis and an upregulation of the β-myosin heavy chain gene. These three parameters were used to assess the effects of ligands of the peripheral-type benzodiazepine receptor (PTBR) upon neonatal rat cardiomyocytes.\nProtein synthesis is assessed by including radiolabelled amino acids in the experimental incubation medias (i.e., [^3H]phenylalanine) at the end of the incubation the cell monolayer is washed with phosphate bufered saline, fized with 10% TCA and lysed with 0.25N NaOH. The total cell lysate is then assessed for tritium contant by scintillation spectrometry.\na. Neonatal rat cardiomyocytes were cultured in 24-well plates for 24 hours in serum-free medium. Medium was then removed and replaced with experimental culture medium containing [^3H]phenylalanine (10 μCi/ml) and either the PTBR agonist Ro5-4864 (RBI, MA, USA) in a concentration range of 10^−12-10^−8 M, or the PTBR antagonist PK11195 (RBI, MA, US) in a concentration range of 10^−12-10^−8 M. Control incubations received [^3H]phenylalanine (10 μCi/ml) containing medium alone. Cell cultures were returned to the incubator for a further 48 hour incubation after which time the cell culture supernatants were harvested for ANP analysis and the cell monolayers were prepared for assessment of tritium incorporation. […] However, at concentrations greater than or equal to 10^−11 M, the PTBR agonist Ro5-4864 caused a three-fold increase in protein synthesis and a five-fold increase in ANP synthesis. Data are expressed as the mean+/−standard deviations of quadruplet samples.\nb. Neonatal rat cardiomyocytes were cultured in 24-well plates for 24 hours in serum-free medium. Medium was then removed and replaced with experimental culture medium containing [^3H]phenylalanine (10 μCi/ml) and either the PTBR agonist Ro5-4864 (RBI, MA, USA) in a concentration range of 10^−12-10^−8 M, or the PTBR antagonist PK11195 (RBI, MA, US) at a concentration of 10^−10 M. Control incubations received [^3H]phenylalanine (10 μCi/ml) containing medium alone. Cell cultures were returned to the incubator for a further 48 hour incubation after which time the cell culture supernatants were harvested for ANP analysis and the cell monolayers were prepared for assessment of tritium incorporation. […] Data are expressed as the mean+/−standard deviations of quadruplet samples."}, "[3]": {"tested_on": "neonatal rat cardiomyocytes", "assay": "ANP synthesis (competition binding ELISA of culture supernatants) in neonatal rat cardiomyocytes", "format": "cell-based"}, "β-MHC promoter": {"tested_on": "β-MHC promoter", "assay": "β-MHC promoter-luciferase reporter in neonatal rat cardiomyocytes", "format": "cell-based", "details": "greater than or equal to 10^-11 M; 24 hours; normalized to SEAP; FIG. 9", "method": "To monitor the expression of β-MHC, β-MHC promoter-luciferase reporter plasmid was constructed. This plasmid is inserted into the cardiomyocyte cultures by liposome mediated transfection and luciferase activity in cell lysates determined following incubation. The amount of luciferase actvity is directly proportional to the level of transcription of the β-MHC gene.\nc. Neonatal cardiomyocytes were cultures in 6-well plates overnight following isolation. The cell monolayers were then transfected with a β-MHC promoter-luciferase reported plasmid and a control plasmid to aid data normalization (pSEAP2 Clontech Corp) using lipofectamine liposome mediated plasmid delivery. Following recovery from the transfection, the cell cultures were treated for 24 hours in the presence and absence of the PTBR agonist Ro5-4864 at 10^−12 M, 10^−11 M and 10^−10 M. The culture supernatants were then harvested for SEAP activity and cell lysates prepared for luciferase assay. […] Data are expressed as the mean+/−standard derivations of triplicate samples."}, "[4]": {"tested_on": "neonatal rat cardiomyocytes", "assay": "Morphology of neonatal rat cardiomyocyte cultures (photography)", "format": "cell-based", "details": "10^-10 M, serum-free", "method": "When cardiomyocytes undergo hypertrophy, their morphology changes quite drastically. The cells become larger and more spread out so another technique employed to monitor hypertrophic effects on cardiomyocytes is to assess their morphology and document that by photography.\nd. Neonatal rat cardiomyocytes were cultures in 6-well plates overnight following isolation. […] FIGS. 10B and 10C show the same cultures following 96 hours of culture and the differenes between control and treated are quite striking."}, "[5]": {"tested_on": "neonatal rat cardiomyocytes", "assay": "Hypertrophic response of neonatal rat cardiomyocytes (conclusions over all readouts)", "format": "cell-based"}, "[6]": {"tested_on": "isolated working rat heart", "details": "cited from earlier work"}, "[7]": {"tested_on": "isolated perfused Langendorf rat heart", "details": "cited from earlier work"}, "human atrial strips": {"tested_on": "human atrial strips", "details": "cited from earlier work"}, "[8]": {"tested_on": "[3H]diazepam binding to heart tissue", "sequence (P30536 2-169 limits assumed)": "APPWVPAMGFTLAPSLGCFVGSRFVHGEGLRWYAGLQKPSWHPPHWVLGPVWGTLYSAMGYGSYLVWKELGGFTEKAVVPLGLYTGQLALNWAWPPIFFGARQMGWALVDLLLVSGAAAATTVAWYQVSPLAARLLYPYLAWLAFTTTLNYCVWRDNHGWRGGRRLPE", "details": "cited from earlier work"}, "PTBR": {"molecular_target": "PTBR (Homo sapiens, UniProt P30536)", "sequence (P30536 whole entry)": "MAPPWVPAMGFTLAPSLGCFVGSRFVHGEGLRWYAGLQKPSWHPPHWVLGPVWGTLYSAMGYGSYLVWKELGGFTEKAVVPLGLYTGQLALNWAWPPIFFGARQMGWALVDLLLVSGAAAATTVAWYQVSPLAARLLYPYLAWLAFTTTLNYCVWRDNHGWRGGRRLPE", "details": "cited from earlier work"}, "[9]": {"tested_on": "isolated rat heart preparation", "details": "cited from earlier work"}, "[10]": {"details": "following intravenous administration; cited from earlier work"}, "[11]": {"tested_on": "isolated cardiac and smooth muscle", "details": "cited from earlier work"}, "[12]": {"details": "dogs; cited from earlier work"}, "[13]": {"details": "Ro5-4864 at higher concentrations (10^-11-10^-8 M) with 10^-10 M PK11195, FIG. 8"}, "[14]": {"details": "concentrations greater than or equal to 10^-11 M, 48 hour incubation, vs control, FIG. 7"}, "[15]": {"details": "isolated perfused Langendorf rat heart"}, "[16]": {"details": "10^-11 M PK11195 (so in the source), Ro5-4864 10^-12-10^-10 M, 48 hour, FIG. 8"}, "[17]": {"details": "compound alone, 10^-12-10^-8 M, 48 hour incubation, FIG. 7"}}, "data": [{"molecule": "O=C1CN=C(c2ccccc2Cl)c2cc([N+](=O)[O-])ccc2N1", "note": "[clonazepam]", "values": [{"measurement": "duration of intracellular action potential and contractility", "setting": "[1]", "value": "ineffective"}]}, {"molecule": "CN1C(=O)CN=C(c2ccc(Cl)cc2)c2cc(Cl)ccc21", "note": "[Ro5-4864]", "values": [{"measurement": "agonist induced increase in protein synthesis in the presence of PK11195", "setting": "[2]; [13]", "value": "able to overcome the inhibitory effect of PK11195"}, {"measurement": "increase in protein synthesis (incorporation of radiolabelled phenylalanine)", "setting": "[2]; [14]", "value": "three-fold"}, {"measurement": "agonist induced increase in ANP synthesis in the presence of PK11195", "setting": "[3]; [13]", "value": "able to overcome the inhibitory effect of PK11195"}, {"measurement": "increase in ANP synthesis", "setting": "[3]; [14]", "value": "five-fold"}, {"measurement": "increase in luciferase activity (transcriptional activity from the β-MHC promoter)", "setting": "β-MHC promoter", "value": "three-fold"}, {"measurement": "cell size / morphology of cardiomyocytes", "setting": "[4]; 24 hours of culture, FIG. 10A", "value": "larger cell size"}, {"measurement": "cell size / morphology of cardiomyocytes", "setting": "[4]; 96 hours of culture, FIGS. 10B and 10C", "value": "much larger and adherent to the extracellular matrix"}, {"measurement": "hypertrophic response: increase in protein synthesis, ANP synthesis, transcription of the β-MHC gene reporter", "setting": "[5]; summary of Example 2", "value": "three- to five-fold"}, {"measurement": "effect on cardiac function", "setting": "[6]", "value": "depress cardiac function"}, {"measurement": "coronary flow", "setting": "[7]; [15]", "value": "increase coronary flow"}, {"measurement": "heart rate and left ventricular contractility", "setting": "[7]; [15]", "value": "without affecting"}, {"measurement": "depressant effect on the contraction amplitude (negative inotropic effect)", "setting": "human atrial strips", "value": 20, "unit": "%"}, {"measurement": "duration of intracellular action potential and contractility", "setting": "[1]", "value": "decreased"}]}, {"molecule": "OCCN(CCO)c1nc(N2CCCCC2)c2nc(N(CCO)CCO)nc(N3CCCCC3)c2n1", "note": "[dipyridamole]", "values": [{"measurement": "competition of [3H]diazepam binding", "setting": "[8]", "value": "can compete"}]}, {"molecule": "trikontetraneuropeptide: shorter fragment of DBI (fragment 17-50) (KTKPSDEEMLFIYGHYKQATVGDINTERPGMLDF; Triakontatetraneuropeptide; UniProt P07108 17-50, looked up, fragment)", "values": [{"measurement": "selectivity for PTBR relative to DBI", "setting": "PTBR", "value": "more selective for PTBR"}]}, {"molecule": "CN1C(=O)CN=C(c2ccccc2)c2cc(Cl)ccc21", "note": "[diazepam]", "values": [{"measurement": "contractile force", "setting": "[7]; Langendorf rat heart", "value": "increased contractile force"}, {"measurement": "inotropic effect", "setting": "[9]", "value": "transient negative inotropic effect followed by a positive inotropic response"}, {"measurement": "duration of intracellular action potential and contractility", "setting": "[1]", "value": "less effective"}, {"measurement": "vagal tone", "setting": "[10]", "value": "decrease"}, {"measurement": "potentiation of the actions of adenosine", "setting": "[11]", "value": "potentiates"}, {"measurement": "potentiation of the coronary vasodilator action of adenosine", "setting": "[12]", "value": "potentiates"}]}, {"molecule": "CCC(C)N(C)C(=O)c1cc2ccccc2c(-c2ccccc2Cl)n1", "note": "(centres unmarked) [PK11195, 1-(2-chlorophenyl)-N-methyl-N-(1-methylpropyl)-3-isoquinoline carboxamide]", "values": [{"measurement": "effect on the Ro5-4864 induced increase in protein synthesis", "setting": "[2]; [16]", "value": "prevented"}, {"measurement": "effect on protein synthesis (incorporation of radiolabelled phenylalanine)", "setting": "[2]; [17]", "value": "no effects"}, {"measurement": "effect on the Ro5-4864 induced increase in ANP synthesis", "setting": "[3]; [16]", "value": "prevented"}, {"measurement": "effect on ANP synthesis", "setting": "[3]; [17]", "value": "no effects"}, {"measurement": "reversal of the Ro5-4864 hypertrophic effect", "setting": "[5]; coincubation of Ro5-4864 with PK11195", "value": "can be reversed"}, {"measurement": "effect on cardiac function", "setting": "[6]", "value": "depress cardiac function"}, {"measurement": "antagonism of the vasodilatory effect of Ro5-4864", "setting": "[7]; [15]", "value": "did not antagonize"}, {"measurement": "antagonism of the positive inotropy induced by diazepam", "setting": "[9]", "value": "antagonized"}, {"measurement": "antagonism of the depressant effect of Ro5-4864", "setting": "human atrial strips", "value": "not antagonized"}, {"measurement": "reversal of the effects of Ro5-4864", "setting": "[1]", "value": "reversed"}]}]}
